Measured values taken from ChEMBL document CHEMBL3507680, “University of Dundee, Gates Library screen for HepG2 cell viability”.

Assay: Human HepG2 cell viability assay in 384 well format
Format: toxicity, cell-based
Parameters: dose 125 nL, time 70.5 hour; concentration not given beside the values
Settings: HepG2 cells, read-out: Inhibition

| SMILES | cytotoxicity at 70.5 h [%] |
| --- | --- |
| Cc1cc(CNCC2CCCN(C(=O)OC(C)(C)C)C2)no1 (stereo not given) | -6.15 |
| O[C@H]1Cc2ccccc2[C@H]1Nc1ncccc1C(F)(F)F | -4.3 |
| Cc1cc(C(=O)NCC2CCCC2)c(C)n1-c1cccnc1 | -6.04 |
| CC(c1ncc(C(C)(C)C)o1)N1CCN(Cc2ccc(Cl)s2)CC1 (stereo not given) | 16.2 |
| CCOc1ccnc(N2CCCN(c3nc(C4CC4)ns3)CC2)n1 | 4.37 |
| Cc1nn(C)c(C)c1C1CCCN1CCCC#N (stereo not given) | -4.71 |
| Cc1nn(C)c(C)c1C1CCCN1CCOc1cccc(C#N)c1 (stereo not given) | -3.95 |
| CCOCCN1CCN(CCC(=O)N2CCCCC2)CC1C (stereo not given) | -0.119 |
| COC(=O)C(C)(C)NC(=O)c1cc2sc(N(C)C)nc2s1 | -13.9 |
| Cc1csc(CNC(=O)NC2CCCN(S(C)(=O)=O)C2)n1 (stereo not given) | -12.3 |
| c1csc(-c2cc(CN3CCN(c4cnccn4)CC3)no2)c1 | -14.8 |
| CCc1noc(C(C)N2CCN(c3ncnc4sccc34)CC2)n1 (stereo not given) | 1.35 |
| CC(NCc1ccc(OCC(N)=O)cc1)c1ccc2c(c1)CCCC2 (stereo not given) | -4.04 |
| CN(C)c1cc2c(nn1)CCN(C(=O)c1cc3c(s1)CCC3)C2 | 8.88 |
| Cn1cc(C(=O)N2CCCN(c3cccnn3)CC2)c2ccccc21 | -0.532 |
| CCNc1cc2c(nn1)CCN(C(=O)C1Cc3ccccc3S1)C2 (stereo not given) | -6.84 |
| CCNc1cc2c(nn1)CCN(C(=O)c1cc3c(s1)CCOC3)C2 | -9.07 |
| COc1cc(OC)cc(N2CCC(NC(=O)c3cccn3C)CC2)c1 | -13.4 |
| COCCN1CCC(CNC(=O)Nc2ccc(-c3ccccc3)cc2)C1 (stereo not given) | 1.85 |
| CCOCCN1CCN(CC(=O)N2CCCC2)CC1C (stereo not given) | -7.94 |
| CC(CNC(=O)c1ccc(C#N)cc1)N1CCc2ccccc21 (stereo not given) | 0.334 |
| Cc1ccc(N2CCCN(C(=O)c3cn(C)c4ccccc34)CC2)nn1 | -7.87 |

| SMILES | cytotoxicity at 70.5 h [%] |
| --- | --- |
| COCCNC1(c2ccc(Cl)cc2)CCOCC1 | 11 |
| CCN(CC1CCOC1)C(=O)NCc1ccc(-n2cncn2)nc1 (stereo not given) | -1.6 |
| Cc1ccc(C(=O)N(Cc2cccc(F)c2)C2CC2)c(=O)[nH]1 | -2.11 |
| Cc1ccc(C(=O)N(Cc2ccc(F)cc2F)C2CC2)c(=O)[nH]1 | -2.76 |
| CN(CCCNC(=O)c1cccc(OCC(N)=O)c1)CC(F)(F)F | 0.403 |
| CN1N=C(C(=O)N2CCCN(c3ncccc3C#N)CC2)CCC1=O | 3.72 |
| CCn1ccnc1CN1CCN(c2ncnc3ccsc23)CC1 | -3.44 |
| CCn1ccnc1CN1CCN(c2ncnc3ccccc23)CC1 | -2.5 |
| Cn1ccnc1CN1CCN(c2ncnc3ccsc23)CC1 | -0.211 |
| Cc1cc(CNC(=O)N2CCc3ccccc32)on1 | -1.25 |
| CN1N=C(C(=O)N2CCN(c3ncccc3Cl)CC2)CCC1=O | 12 |
| Cn1cc(N2CCCC(Nc3ccc4c(c3)NC(=O)CC4)C2=O)cn1 (stereo not given) | -1.14 |
| O=C(c1ccc(NCc2ccco2)nc1)N1CCc2ccccc21 | -3.94 |
| Cn1cc(N2CCCC(Nc3ccc4c(c3)CCC(=O)N4)C2=O)cn1 (stereo not given) | 0.589 |
| Cc1noc(C)c1CCCNC(=O)C1CCCN(C(=O)C2CC2)C1 (stereo not given) | -0.841 |
| COCCC(=O)N1CCC(Nc2ncc(Br)cn2)CC1 | -0.761 |
| CC(C)OCCNC1(c2ccc(Cl)cc2)CCOCC1 | -0.58 |
| CC(c1cccnc1)N1CCN(C(=O)NCc2cnn(C)c2)CC1 (stereo not given) | -1.81 |
| CC(C)CNC(=O)COc1cccc[n+]1[O-] | 0.267 |
| COCc1ccccc1C(=O)NCC(c1c(F)cccc1F)N(C)C (stereo not given) | 0.326 |
| COC1CCN(CCNC(=O)NCC(C)c2cccc(C)c2)CC1 (stereo not given) | 9.93 |
| COc1ccc2c(c1)CCCN2C(=O)CN1CCOC(C)C1 (stereo not given) | 0.691 |

| SMILES | cytotoxicity at 70.5 h [%] |
| --- | --- |
| CN(CCCNC(=O)c1ccccc1F)CC(F)(F)F | -2.12 |
| COCC(=O)N1CCN(C(=O)C2(c3ccc(C)c(OC)c3)CC2)CC1 | -2.36 |
| O=C(Cc1csc(Cc2ccccn2)n1)NCCCN1CCCC1=O | 32.1 |
| N#Cc1c(F)cccc1Nc1cnn(CC(=O)N2CCOCC2)c1 | 39.8 |
| Cc1ccccc1CN(C)C(C(N)=O)c1ccccc1 (stereo not given) | -16.6 |
| CN(C)c1ncccc1CNc1snc(Cl)c1C#N | -77.9 |
| CN(Cc1cnn(C)c1)C(=O)Cc1ccc2c(c1)OCCO2 | -62.7 |
| N#Cc1c(Cl)nsc1NCc1cccnc1OCC(F)(F)F | -105 |
| CC(C(N)=O)N(C)Cc1ccccc1C(F)(F)F (stereo not given) | -87.9 |
| COCC(=O)N1CCN(Cc2csc(-c3ncccn3)n2)CC1 | -2.92 |
| Cc1c(C(=O)NCCC(C)C)nnn1-c1cccc2c1CCN(C)C2 | -5.25 |
| CCC(C)(C)NC(=O)c1nnn(-c2cccc3c2CCN(C)C3)c1C | 9.39 |
| COCCNC(=O)Nc1cccc2c1CCN(S(C)(=O)=O)C2 | -0.282 |
| Cc1cc(C)n(C2CN(CC(=O)N(C)Cc3ccsc3)C2)n1 | -1.75 |
| CSCC(=O)Nc1cccc(Oc2ccccn2)c1 | 9.83 |
| CCN(CC)C(=O)Nc1cccc(Oc2ccccn2)c1 | 20.3 |
| CCNC(=O)N(CCCO)C1CCCc2ccccc21 (stereo not given) | -3.93 |
| N#Cc1cccc(S(=O)(=O)N2CCCCC2C(N)=O)c1 (stereo not given) | -3.12 |
| CCOCCOC(C)C(=O)NCc1cn2cc(Cl)ccc2n1 (stereo not given) | 15.2 |
| CC(=O)Nc1cccc(OCCNC(=O)N(C)Cc2ccccc2)c1 | 3.43 |
| CCCC(C(=O)NCCc1nc(C)cs1)N(C)C (stereo not given) | 2.88 |
| Cc1nc(C)n(CC2CCCN(Cc3nc(-c4ccco4)no3)C2)n1 (stereo not given) | -3.87 |

| SMILES | cytotoxicity at 70.5 h [%] |
| --- | --- |
| CC(O)CN1CCN(C(=O)c2cnc(OC(C)C)c(Cl)c2)CC1 (stereo not given) | 5 |
| Cc1ccccc1CN(C)C(=O)Cn1nc(-c2ccc(F)cc2)oc1=O | 29.6 |
| Cc1cc(NCc2ccccc2CN2CCCCC2)n2ncnc2n1 | -10.1 |
| Cc1cc(=O)n2ncnc2n1CC(O)c1ccc(F)cc1F (stereo not given) | -16.6 |
| NC(=O)NC(=O)CCN1CCC(C(=O)c2cc(F)ccc2F)CC1 | -12.1 |
| O=C(CCN1CCC(C(=O)c2cc(F)ccc2F)CC1)NC1CCCC1 | -17.8 |
| O=C(c1cccnc1)N1CCCC1C1CCN(Cc2ccccc2)CC1 (stereo not given) | -13.7 |
| COCC(C)NC(=O)Nc1cc(-c2ccccc2C)nn1CCO (stereo not given) | -4.5 |
| CC(C)S(=O)(=O)NC(=O)c1cc(-c2cccc(Cl)c2)no1 | -11.8 |
| Cc1n[nH]c(C2CN(C(=O)c3ccoc3C)CCO2)n1 (stereo not given) | 1.53 |
| CN(C)S(=O)(=O)c1cccc(CNc2cc(CO)ccc2Cl)c1 | -13.5 |
| Cc1ccc(C(=O)N2CCSCC2)cc1NC(C)C | -3.36 |
| CC(C)Oc1ncc(C(=O)N2CCC(N(C)C)CC2)cc1Cl | -9.31 |
| CCCc1nc(CN2CCCC2Cn2cccn2)cs1 (stereo not given) | -11.6 |
| CC(C)(C)c1noc(CN2CCN(C(=O)c3ccco3)CC2)n1 | 14.9 |
| CC(C)C(=O)NC1CCN(CCO)CC1 | 4.41 |
| c1ccc(-c2nnc(CNCC3CCCN3c3cccnn3)o2)cc1 (stereo not given) | 7.04 |
| CN(Cc1nnc(C2CC2)o1)C1CCN(CCc2cccs2)C1 (stereo not given) | 30.4 |
| CC(NCc1ccc(OCC(N)=O)cc1)c1ccc(Cl)cc1Cl (stereo not given) | -5.48 |
